For 17 compounds, IC50, Activity and solubility results are on record in ChEMBL document CHEMBL1944552, “Pharmacophore-based discovery of a novel cytosolic phospholipase A(2)α inhibitor” (Bioorg Med Chem Lett, 2012).

The nature of data set [1]: Inhibition of cPLA2alpha.
Data set [2] is described as follows: Inhibition of human recombinant His-tagged cPLA2alpha expressed in baculovirus-infected Sf9 cells assessed as residual activity at 10 uM after 1 hr by RP-HPLC analysis.
Data set [3] in a line: Aqueous solubility of the compound at >10 uM. Type of data set: physicochemical. The settings on record: buffer.
Data set [4] in a line: Inhibition of human recombinant His-tagged cPLA2alpha expressed in baculovirus-infected Sf9 cells after 1 hr by RP-HPLC analysis.
The nature of data set [5]: Inhibition of cPLA2alpha-mediated [3H]-arachidonic acid release in Ca2+ ionophore A23187-stimulated human monocytes preincubated for 15 mins prior Ca2+ ionophore A23187 stimulation measured after 5 mins by scintillation counting.

A word on the IC50: it is the concentration that inhibits the measured activity by half. Consider `O=C(COc1ccc(SCCCCCc2ccccc2)cc1)COc1ccc(C(=O)O)cc1`, for which half-maximal inhibition in data set [1] (IC50) was put at 0.004 µM.

Take `CCCCCCCCCCCCCCCCOc1ccc(C(=O)O)cc1`: the Activity in data set [2] stood at 88.4%. For the same compound, the solubility entry in data set [3] is recorded as “Insoluble”.

As to `Cc1cc(-c2ccc(/N=N/c3c(S(=O)(=O)O)cc4cc(S(=O)(=O)O)cc(N)c4c3O)c(C)c2)ccc1/N=N/c1ccc2c(S(=O)(=O)O)ccc(N)c2c1O`, the Activity in data set [2] came out at 87.5%. In addition, in data set [3], the solubility entry is given as “Insoluble”.

With `CCCCCCCCCCCCCCCc1cc(=O)n(-c2ccc(NC(=O)/C=C/C(=O)O)cc2)n1C`, in data set [2], the Activity was found to be 92.6%. Besides, in data set [3], the solubility result is listed as “Insoluble”.

Regarding `CCCCCCCCCCCCCCCCOc1ccc(C(=O)O)cc1NC(=O)/C(=N/O)C(C)=O`, the values for the IC50 in data set [4] and in data set [5] were 4 µM and 5 µM, respectively.

`CCCCCCCCCCCCCCCCCC1=NCCN1CCN(CS(=O)(=O)O)CS(=O)(=O)O`: in data set [2], the Activity worked out at 106%. The solubility entry in data set [3] is “Insoluble”.

In the case of `Cn1ccnc1SCCCCOc1ccc(OCC(=O)COc2ccc(C(=O)O)cc2)cc1`, 63 µM corresponded to half-maximal inhibition in data set [1] (IC50).

As for `CCCCCCCCCCCCCCCCCC1=NCCN1CS(=O)(=O)O`, in data set [2], the Activity is 94.7%. Moreover, in data set [3], the solubility entry is recorded as “Insoluble”.

With `COc1cc(/N=N/c2ccc3cc(S(=O)(=O)O)cc(S(=O)(=O)O)c3c2)ccc1/N=N/c1ccc(NC(=O)c2ccc(NC(=O)c3ccccc3)cc2)cc1C`, in data set [2], the Activity is 62.7%. Also, in data set [3], the solubility entry is recorded as “Insoluble”.

As to `O=C(COc1ccc(C(=O)O)cc1)COc1ccc(C(=O)NCCCCc2ccccc2)cc1`, the 50% inhibitory concentration (IC50) in data set [1] was found to be 20 µM.

Regarding `CCCCCCCCCCCCCCCCN(C)c1ccc(S(=O)(=O)O)cc1[N+](=O)[O-]`, in data set [2], the Activity came to 61.4%. The solubility entry in data set [3] is “Insoluble”.

With `CCCCCCCCCCCCCCCc1nnc(SCC(=O)O)[nH]1`, the Activity in data set [2] is 85.1%. For the same compound, the solubility entry in data set [3] is on record as “Insoluble”.

On to `Cc1cc(N)ccc1/N=N/c1ccc(/N=N/c2ccc(/N=N/c3ccc4cc(S(=O)(=O)O)cc(S(=O)(=O)O)c4c3)c(C)c2)c(C)c1`, for which the Activity in data set [2] was 81.9%. The solubility result in data set [3] is on record as “Insoluble”.

Consider `CCCCCCCCCCCCCCCCOc1ccc(S(=O)(=O)N/N=c2/sc3ccc(S(=O)(=O)O)cc3n2C)cc1C(=O)O`, for which the Activity in data set [2] was 70.2%. In addition, in data set [3], the solubility result is reported as “Insoluble”.

For `CCCCCCCCCCCCCCCC1=NN(c2ccc(S(=O)(=O)O)cc2)C(=O)C1/N=N/c1ccccc1` (centres undefined), the Activity in data set [2] was found to be 77.1%. The solubility result in data set [3] was “Insoluble”.

`CN(CCc1ccccc1)C(=O)CSc1ccc(OCC(=O)COc2ccc(C(=O)O)cc2)cc1` returned an IC50 in data set [1] of 34 µM.

Compound `O=C(COc1ccc(SCCCCSc2nccs2)cc1)COc1ccc(C(=O)O)cc1` yielded an IC50 in data set [1] of 0.76 µM.
